According to paper PMC12915096, “AI‐Driven Acceleration of Fluorescence Probe Discovery” (Advanced Science, 2025):

Target: T1, tau aggregates in cleared P301S mice brain (Homo sapiens, UniProt P10636, P618S)
T1 construct: from tissue; host or cells: brain of 9-month-old P301S (PS19) tau transgenic mice, in vivo and ex vivo
Assay: 3D transparent brain imaging after tissue clearing
Type: in vivo
Details: transgenic mouse brains, ex vivo
Protocol: After two‐photon imaging, mice were anesthetized by isoflurane and were transcardially perfused with ice‐cold 1×PBS followed with ice‐cold 4% PFA solution. Brain was incubated in 4% PFA at 4°C with shaking overnight. The samples were then washed with 1×PBS for at least 2 h twice at room temperature. The clearing of the fixed samples was conducted with Nuohai enhanced tissue clearing kit (NH‐CR‐230701, Nuohai Life Science (Shanghai) Co., Ltd). Briefly, samples were immersed individually in 20 mL of solution A for 7–8 days (refreshing the solution every two days) with gentle shaking at 37°C. The sample was washed in 1×PBS for 6 h with gentle shaking at room temperature and the PBS refreshed every 2 h. Finally, the samples were RI matched for 3D imaging. 3D fluorescence imaging of the cleared tissues was conducted with a Nuohai LS 18 tiling light sheet microscope (Nuohai Life Science Co., Ltd). A 4‐tile tiling light sheet was used to illuminate the samples, and a 1 × 0.25 NA objective (Olympus MVPLAPO) was used to collect the fluorescence. The magnification of the microscope was set at 4×, and the spatial resolution was roughly 3.3 × 3.3 × 7 µm^3 at the selected imaging conditions. The collected images were processed with the LS 18 image combine software (Nuohai Life Science Co., Ltd) and rendered using Amira (Thermo Fisher Scientific, USA). […]

T1 sequence (P10636 1-412 isoform P10636-7 P272S): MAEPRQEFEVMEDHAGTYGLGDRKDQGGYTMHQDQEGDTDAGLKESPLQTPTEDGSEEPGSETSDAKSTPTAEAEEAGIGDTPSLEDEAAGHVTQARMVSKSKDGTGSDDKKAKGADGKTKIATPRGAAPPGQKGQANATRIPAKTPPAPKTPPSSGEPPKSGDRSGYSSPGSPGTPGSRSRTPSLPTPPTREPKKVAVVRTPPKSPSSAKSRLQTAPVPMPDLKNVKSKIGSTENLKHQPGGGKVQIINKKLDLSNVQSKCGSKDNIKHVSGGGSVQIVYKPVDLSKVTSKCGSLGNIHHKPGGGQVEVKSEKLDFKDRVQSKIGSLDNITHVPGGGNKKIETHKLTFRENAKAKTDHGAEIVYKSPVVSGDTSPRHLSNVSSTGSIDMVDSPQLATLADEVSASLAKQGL

O=C(O)c1cc(/C=C/c2ccc(/C=C/c3ccc(O)c(C(=O)O)c3)c(F)c2)ccc1O [FSB]
Tau labeling signal after 8 days of tissue clearing: nearly abolished
